This passage reports IC50 and melting point results from patent US6670371B2, “Certain pyrrolopyridine derivatives: novel CRF1 specific ligands” (Neurogen Corporation, priority 1995, dated 2003).

The target of one series is T1, CRF receptors (Homo sapiens, UniProt P34998).
T1 sequence (P34998 24-415): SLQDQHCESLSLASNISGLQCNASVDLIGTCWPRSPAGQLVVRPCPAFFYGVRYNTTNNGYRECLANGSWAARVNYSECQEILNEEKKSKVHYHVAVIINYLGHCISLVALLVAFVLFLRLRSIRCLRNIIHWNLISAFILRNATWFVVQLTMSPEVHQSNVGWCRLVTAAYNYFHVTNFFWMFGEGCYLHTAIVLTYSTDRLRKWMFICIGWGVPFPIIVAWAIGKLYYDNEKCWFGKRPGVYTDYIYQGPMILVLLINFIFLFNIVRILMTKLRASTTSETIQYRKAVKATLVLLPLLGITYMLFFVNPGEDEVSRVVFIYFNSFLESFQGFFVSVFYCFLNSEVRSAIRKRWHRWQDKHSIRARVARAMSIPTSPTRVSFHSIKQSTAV
As to the kind of experiment: CRF receptor binding assay (125I-CRF displacement). The following applies: membrane pellets containing CRF receptors; 125I-CRF 100 pM; room temperature for 2 hours; non specific binding defined by 1 uM cold CRF. The protocol: Assay for CRF Receptor Binding Activity
CRF receptor binding was performed using a modified version of the assay described by Grigoriadis and De Souza (Biochemical, Pharmacological, and Autoradiographic Methods to Study Corticotropin-Releasing Factor Receptors. Methods in Neurosciences, Vol. 5, 1991). Membrane pellets containing CRF receptors were resuspended in 50 mM Tris buffer pH 7.7 containing 10 mM MgCl2 and 2 mM EGTA and centrifuged for 10 minutes at 48000 g. Membranes were washed again and brought to a final concentration of 1500 ug/ml in binding buffer (Tris buffer above with 0.1% BSA, n 0.15 M bacitracin and 0.01 mg/ml aprotinin.). For the binding assay, 100 ul of the membrane preparation was added to 96 well microtube plates containing 100 ul of 125I-CRF (SA 2200 Ci/mmol, final concentration of 100 pM) and 50 ul of drug. Binding was carried out at room temperature for 2 hours. Plates were then harvested on a Brandel 96 well cell harvester and filters were counted for gamma emissions on a Wallac 1205 Betaplate liquid scintillation counter. Non specific binding was defined by 1 uM cold CRF.

Consider `CCCN(CCC)c1cc(C)nc2c1c1c(n2-c2c(C)cc(C)cc2C)CCCC1` [Compound 1, N,N-Dipropyl-2-methyl-6,7,8,9-tetrahydro-9-(2,4,6-trimethylphenyl)-5H-pyrido[2,3-b]indol-4-amine], for which the melting point (usually the temperature of the solid-liquid transition) fell in the range of 117 to 118 °C. The half-maximal inhibitory concentration (IC50) (commonly the concentration that inhibits the measured activity by half) on CRF receptors worked out at 11 nM.
